Assay results from PubChem BioAssay (NCI).
“And” between values parts separate entries of the source, which are not always exact repeats. Equal values may be shown once.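 The compound was tested at five concentrations on cells cultured in 96-well plates, with a 48-hour exposure period. GI50 is the concentration that inhibits growth by half. TGI denotes the concentration required for complete inhibition of growth.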

How the values were obtained:
Assay in all cases: DTP human tumour cell line panel, 48 h
M14 melanoma = test system: M14 melanoma
NCI-H226 lung = test system: NCI-H226 lung
SW-620 colon = test system: SW-620 colon
EKVX NSCLC = test system: EKVX NSCLC
ACHN renal = test system: ACHN renal
HOP-62 NSCLC = test system: HOP-62 NSCLC
BT-549 breast = test system: BT-549 breast
HL-60(TB) leukemia = test system: HL-60(TB) leukemia

Structure (SMILES) | GI50 (M14 melanoma) [µM] | TGI (M14 melanoma) | GI50 (NCI-H226 lung) [µM] | TGI (NCI-H226 lung) | GI50 (SW-620 colon) [µM] | TGI (SW-620 colon) | GI50 (EKVX NSCLC) [µM] | TGI (EKVX NSCLC) | GI50 (ACHN renal) [µM] | TGI (ACHN renal) | GI50 (HOP-62 NSCLC) [µM] | TGI (HOP-62 NSCLC) | GI50 (BT-549 breast) [µM] | TGI (BT-549 breast) | GI50 (HL-60(TB) leukemia) [µM] | TGI (HL-60(TB) leukemia)
O=C1NC(=O)N(S(=O)(=O)c2cc(C(=O)Nc3ccc(Cl)cc3)c(Cl)cc2S)S(=O)(=O)N1 | 16.2 | 31.6 µM | 22.2 | 56.1 µM | 20.4 | 44.5 µM | 18.3 | 38.9 µM | 21.6 | 43.7 µM | 18.3 | 37.4 µM | 20.5 | 45.7 µM | – | –
Oc1c(Br)cc(Cl)cc1C(c1cc(Cl)cc(Br)c1O)C(Cl)(Cl)Cl | 3.74 | 12.8 µM | 2.72 | 8.61 µM | 3.28 | 13 µM | 2.72 | 11.3 µM | 3.06 | 9.81 µM | 3.02 | 9.16 µM | 3.22 | 10.1 µM | 3.02 | 7.6 µM
CC1=C(C(=O)Nc2ccc3[nH]ncc3c2)C(c2ccc(F)cc2)N=C(c2ccc(C(F)(F)F)nc2)N1 (stereo not given) | 10.4 | > 25 µM | 3.99 | > 25 µM | 11.6 | > 25 µM | 6.19 | > 25 µM | 13.3 | > 25 µM | 10.1 | > 25 µM | 5.28 | 18.2 µM | 6.67 | > 25 µM
O=C1Nc2ccc(Cl)cc2/C1=N/c1nc(-c2ccc(Cl)cc2)cs1 | 1.4 | 2.82 µM | – | – | 1.67 | 4.29 µM | – | – | – | – | – | – | – | – | – | –
N=C(N)SCc1ccc(Cl)c2ccccc12 (tested in a mixture with another compound) | – | 23.8 µM and 26.5 µM | – | 30.3 µM and 28.6 µM | – | 28.5 µM and 27.6 µM | – | 24.5 µM and 27.5 µM | – | 25.1 µM and 25.8 µM | – | 24.3 µM and 30.5 µM | – | 29.5 µM and 30.8 µM | – | 12.6 µM and 17.8 µM
COc1ccccc1CNCCCN1C(=O)c2ccc3c4c(ccc(c24)C1=O)C(=O)N(CCCNCc1ccccc1OC)C3=O | 0.179 | 0.337 µM | 0.362 | 1.32 µM | 0.0861 | 0.298 µM | 0.168 | 0.343 µM | 0.17 | 0.555 µM | 0.192 | 0.633 µM | 0.348 | 0.895 µM | 0.212 | 0.453 µM
COc1ccc([C@@H]2[C@@H](Oc3ccccc3)C(=O)N2c2cc(OC)c(OC)c(OC)c2)cc1F | 0.0818 | 1.72 µM | 0.99 | > 100 µM | 0.0769 | > 100 µM | 0.465 | > 100 µM | 0.0699 | > 100 µM | 0.0811 | > 100 µM | 0.0342 | > 100 µM | 0.24 | 0.609 µM
CC(=O)O[C@H]1C[C@@H]2[C@@]3(C)CC[C@H]4C[C@@]4(C)[C@@H]3CC[C@@]2(C)C2=CCC3=C(COC3=O)[C@]21C | 22.6 | 47.3 µM | 16 | 32.6 µM | 19.4 | 43.6 µM | 17.6 | 35 µM | 21.5 | 43.9 µM | 17.5 | 36.4 µM | – | – | 52.7 | > 100 µM
CC[C@]12C=CCN3CC[C@@]4(c5ccc(OC)cc5N(C)[C@H]4[C@@](O)(C(=O)OC)[C@@H]1OC(=O)CCCN1CCN(CCCC(=O)O[C@@H]4[C@]5(CC)C=CCN6CC[C@@]7(c8ccc(OC)cc8N(C)[C@H]7[C@@]4(O)C(=O)OC)[C@@H]65)CC1)[C@@H]32 | 1.87 | 3.61 µM | 1.73 | 3.47 µM | 1.6 | 3.21 µM | 1.44 | 2.97 µM | 0.857 | 2.07 µM | 1.28 | 2.81 µM | 1.78 | 3.33 µM | 0.464 | 1.85 µM
O=C(O)CSc1cc(NS(=O)(=O)c2ccc(Br)cc2)c2ccccc2c1O | 15.1 | 29.5 µM | 20.1 | 44.9 µM | 14.4 | 33.7 µM | 13.8 | 32.8 µM | 12.8 | 26.6 µM | 17.9 | 31.9 µM | 16.2 | 30.5 µM | 3.05 | > 26.8 µM
FC(F)(F)c1cccc(CNC2CCN(CCc3ccccc3)CC2)c1 | – | – | 62.4 | > 100 µM | 36.9 | > 100 µM | – | – | 33.2 | > 100 µM | 37.5 | > 100 µM | 24.8 | > 100 µM | 20.9 | 49 µM
O=C(CCN1CCOCC1)Nc1ccc(Cn2nnc3c2C(=O)c2nnn(Cc4ccc(NC(=O)CCN5CCOCC5)cc4)c2C3=O)cc1 | 6.74 | > 23.1 µM | > 100 | > 100 µM | 2.58 | > 100 µM | > 100 | > 100 µM | > 100 | > 100 µM | 57.7 | > 100 µM | 2.87 | 8.77 µM | 1.14 | 4.63 µM
O=c1c(Oc2ccc(F)cc2F)cc2cnc(NC3CCOCC3)nc2n1C1CC1 | > 25 | > 25 µM | > 22.9 | > 25 µM | > 25 | > 25 µM | – | – | > 25 | > 25 µM | > 25 | > 25 µM | > 25 | > 25 µM | > 25 | > 25 µM
O=C1NC(=NCc2cccs2)O/C1=C\c1ccc2ncccc2c1 | 5 | 17 µM | 5.82 | > 19.8 µM | 4.74 | 15.7 µM | – | – | 4.07 | 21.5 µM | 6.1 | 18.9 µM | 3.15 | 13.3 µM | 4.64 | 15.3 µM
O=C(O)c1cn(C2CC2)c2cc(N3CCN(C(=O)N(c4ccccc4)c4nc(-c5ccccc5)cs4)CC3)c(F)cc2c1=O | 0.437 | > 100 µM | – | – | – | – | 0.397 | > 100 µM | – | – | 0.462 | > 45.4 µM | 0.349 | 6.81 µM | – | –
